Experimental data taken from article PMC8899820, “Pharmacokinetics, Tissue Distribution, and Excretion Characteristics of a Radix Polygoni Multiflori Extract in Rats” (Frontiers in Pharmacology, 2022).
Where two headings read alike, the source gives them in different places.

What was measured:
[1] = rat, in vivo
Description: (§1) The pharmacokinetic parameters, including the area under the plasma concentration-time curve from time zero to time t (AUC0-t) to time infinity (AUC0-∞), the time to reach the maximum plasma concentration (T max), the elimination half-time (t 1/2), and the maximum plasma concentration (C max), were calculated using the pharmacokinetic software Phoenix® WinNonlin®, version 7.0 (Scientific Consulting Inc., Apex, NC, United States). Data are expressed as the mean ± standard deviation (SD) for each group. The dose-exposure relationship was evaluated by the power function model combined with the confidence interval method ([Smith et al., 2000]; [Sethuraman et al., 2007]; [Hummel et al., 2009]). First, the administration dose, AUC0-∞ and C max were logarithmically transformed, and then a linear regression was performed to obtain the curve correlation coefficient (R^2), slope and 90% confidence interval (90% CI).

[2] = rat, in vivo, po, 36 g/kg; cited from earlier work
[3] = rat, in vivo, po
Excerpt: (§2) For the pharmacokinetic (PK) study, three groups (n = 6 each) of rats were orally administered RPM extract (6, 18, and 36 g/kg). In the plasma pharmacokinetics experiment, doses were 6, 18, and 36 g/kg for the single administration group and 18 g/kg for the continuous administration group. The doses were set at a subtoxic level ([Zhang et al., 2013]; [Wang et al., 2015]) to investigate the pharmacokinetic profiles of the constituents of RPM (36 g/kg group) and were approximately 60 times the upper dose (6 g/day) for humans recommended by the 2020 edition of Chinese Pharmacopoeia ([Chinese Pharmacopoeia Commission, 2020]), which was converted to a dose for rats based on body surface area conversion ([Reagan-Shaw et al., 2008]). In addition, the low and medium doses decreased in a certain proportion. Serial blood samples (∼120 μL; before dosing and at 5, 15, and 30 min, and 1, 2, 4, 6, 8, 12, and 24 h after administration) were collected in heparinized tubes from the orbital sinus under light isoflurane. The blood samples were centrifuged at 12000 g for 2 min, and the plasma fractions were decanted and frozen at −70°C until analysis.
(§3) Samples were prepared using the protein precipitation process. Rat plasma (50 μL) spiked with 10 μL of IS (puerarin 100 ng/ml) was extracted with 150 μL acetonitrile. After vortex shaking for 5 min and centrifugation at 14,000 g for 5 min, 150 μL of the organic layer was transferred to a clean tube and evaporated to dryness at 25°C under a stream of nitrogen. The residue was reconstituted in 50 μL of the initial mobile phase and subjected to another round of centrifugation at 14,000 g for 5 min, and 5 μL of the supernatant was injected for LC–MS/MS analysis.
(§4) The analysis was performed on an AB Sciex API 5500 Q Trap mass spectrometer (Toronto, Canada), interfaced with a Waters Acquity UPLC separation module.
as §1

[4] = in vivo; details: Sprague-Dawley, rat, po, 18 g/kg
Description: For the tissue distribution study, 18 rats were randomly divided into three groups (n = 6, each) and orally administered 18 g/kg RPM extract. The rats under isoflurane anesthesia were sacrificed by bleeding from the abdominal aorta at 5, 15, and 60 min (six rats per time point) after gavage with 18 g/kg RPM extract. Subsequently, the heart, liver, spleen, lung, kidney, brain, stomach, small intestine, bladder, and gonads (testes of male rats, and uterus and ovaries of female rats) were immediately collected. An accurately weighed amount of fresh tissue sample (0.25 g) was individually homogenized with normal saline (1 ml) and transferred (50 μL) as a tissue homogenate to 1.5 ml centrifuge tubes for use as the tissue samples. All tissue samples were stored at −70°C until analysis.
Samples were prepared using the protein precipitation process. […] The tissue samples were homogenized in four parts of ice-cold 0.9% saline solution and then centrifuged at 4°C and 12,000 × g for 10 min to obtain tissue homogenates. […] Tissue homogenate, urine, bile and fecal samples were subjected to a similar process as the rat plasma samples.
For the tissue distribution study, 18 rats were randomly divided into three groups (n=6, each), and orally administered with 18 g/kg RPM extract. The rats were sacrificed at 5, 15, 60 min after orally administering RPM. Subsequently, the heart, liver, spleen, lung, kidney, brain, stomach, small intestine, bladder, gonad (testes of male rats, uterus and ovaries of female rats) were immediately collected. An accurately weighed amount of fresh tissue sample (0.25 g) was individually homogenized with normal saline (1 mL) and transferred (50 μL) as a tissue homogenate to 1.5 mL centrifuge tubes for use as the tissue samples.

[5] = in vivo; details: Sprague-Dawley, rat, po
Excerpt: as §2, §3, §4, §1

Structure (SMILES): O=C1c2cc(O)cc(O)c2C(=O)c2c(O)cc(CO)cc21 [Citreorosein]
- Conclusion (dose-exposure relationship) [1]: Uncertainty of linear relationship
- AUC0-∞ [2]: 468 ± 337 nM·h
- AUC(0-t) [2]: 458 ± 338 nM·h
- Cmax [2]: 0.521 ± 0.512 µM
- time at which C max was exhibited [3]: ≤ 20 min
- AUC(0-t) ([4]; both, AUC0-t in bladder): 60.4 nM·h
- AUC(0-t) ([4]; both, AUC0-t in brain): 5.83 nM·h
- AUC(0-t) ([4]; both, AUC0-t in heart): 650 nM·h
- AUC(0-t) ([4]; both, AUC0-t in intestine): 211 nM·h
- AUC(0-t) ([4]; both, AUC0-t in kidney): 587 nM·h
- AUC(0-t) ([4]; both, AUC0-t in liver): 1600 nM·h
- AUC(0-t) ([4]; both, AUC0-t in lung): 580 nM·h
- AUC(0-t) ([4]; both, AUC0-t in spleen): 873 nM·h
- AUC(0-t) ([4]; both, AUC0-t in stomach): 783 nM·h
- AUC(0-t) ([4]; female, AUC0-t in ovary): 227 nM·h
- AUC(0-t) ([4]; female, AUC0-t in uterus): 104 nM·h
- AUC(0-t) ([4]; male, AUC0-t in testis): 13.7 nM·h
- AUC(0-inf) ([5]; 6 g/kg): 96.1 ± 17.1 nM·h
- AUC(0-t) ([5]; 6 g/kg): 87.2 ± 21.5 nM·h
- Cmax ([5]; 6 g/kg): 0.0412 ± 0.0088 µM
- MRT inf ([5]; 6 g/kg): 6.87 ± 1.42 h
- Tmax ([5]; 6 g/kg): 0.25 h
- half-life ([5]; 6 g/kg): 5.07 ± 1.32 h
- AUC(0-inf) ([5]; 18 g/kg): 558 ± 499 nM·h
- AUC(0-t) ([5]; 18 g/kg): 416 ± 251 nM·h
- Cmax ([5]; 18 g/kg): 0.349 ± 0.216 µM
- MRT inf ([5]; 18 g/kg): 5.69 ± 1.57 h
- half-life ([5]; 18 g/kg): 3.78 ± 0.75 h
